Data reported in the Kinase Knowledgebase extract (Sharma et al. 2016).
pIC50: −log10 of the molar value. Values joined by “and” are separate entries in the source; they are usually repeats but may differ in a detail not shown here. Equal entries are not always repeated.

Legend:
[1] = target: EGFR (human), P00533 [WT]; settings: a431
[2] = target: EGFR (Human), P00533 [T790M/L858R]; experiment: Cell-Based Assay; settings: h1975
[3] = target: EGFR (Human), P00533 [Inhibition of EGFR Dependent Proliferation of HCC827(.Delta.746-750) cells]; experiment: Cell-Based Assay
[4] = target: EGFR (human), P00533 [WT]; experiment: Cell-Based Assay; settings: a431
[5] = target: EGFR (Human), P00533 [T790M/L858R]; experiment: Cell-Based Assay; settings: h1975; remark: listed apart in the source
[6] = target: EGFR (Human), P00533 [Assessment of Phosphorylation of EGFR(.Delta.746-750) in HCC827 Cells]; experiment: Cell-Based Assay
Sequence of EGFR (Human), P00533 [Assessment of Phosphorylation of EGFR(.Delta.746-750) in HCC827 Cells] (P00533 whole entry, looked up, stated change not applied): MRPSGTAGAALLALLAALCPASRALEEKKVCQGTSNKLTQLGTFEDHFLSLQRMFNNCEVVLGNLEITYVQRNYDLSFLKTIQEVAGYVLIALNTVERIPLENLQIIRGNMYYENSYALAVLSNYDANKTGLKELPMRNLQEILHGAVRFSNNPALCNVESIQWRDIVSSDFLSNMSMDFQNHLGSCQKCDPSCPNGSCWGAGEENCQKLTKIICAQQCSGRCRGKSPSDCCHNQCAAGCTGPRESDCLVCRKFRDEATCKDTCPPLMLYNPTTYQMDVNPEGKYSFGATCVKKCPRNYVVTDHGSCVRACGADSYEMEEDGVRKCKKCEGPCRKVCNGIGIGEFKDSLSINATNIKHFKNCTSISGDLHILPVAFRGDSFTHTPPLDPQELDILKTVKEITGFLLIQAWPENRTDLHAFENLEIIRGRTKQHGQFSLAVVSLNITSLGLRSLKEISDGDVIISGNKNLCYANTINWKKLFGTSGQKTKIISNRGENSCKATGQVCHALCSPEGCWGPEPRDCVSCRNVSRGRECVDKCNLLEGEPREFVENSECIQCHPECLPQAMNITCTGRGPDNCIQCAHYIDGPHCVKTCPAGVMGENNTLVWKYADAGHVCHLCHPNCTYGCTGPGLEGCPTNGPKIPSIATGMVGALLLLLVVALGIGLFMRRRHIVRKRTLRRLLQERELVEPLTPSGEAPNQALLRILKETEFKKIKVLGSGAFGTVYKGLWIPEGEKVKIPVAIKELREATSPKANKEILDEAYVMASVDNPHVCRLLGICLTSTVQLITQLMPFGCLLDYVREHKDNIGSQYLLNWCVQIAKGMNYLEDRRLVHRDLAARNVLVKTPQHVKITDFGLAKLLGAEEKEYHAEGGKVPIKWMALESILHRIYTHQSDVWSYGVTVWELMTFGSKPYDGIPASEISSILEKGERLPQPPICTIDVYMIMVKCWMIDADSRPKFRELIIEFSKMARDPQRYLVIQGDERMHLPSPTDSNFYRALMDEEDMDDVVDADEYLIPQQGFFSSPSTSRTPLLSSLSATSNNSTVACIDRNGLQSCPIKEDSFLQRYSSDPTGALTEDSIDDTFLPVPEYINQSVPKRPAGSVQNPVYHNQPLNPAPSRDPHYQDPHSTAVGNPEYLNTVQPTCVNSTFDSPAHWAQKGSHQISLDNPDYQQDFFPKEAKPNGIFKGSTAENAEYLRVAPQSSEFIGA

Sequence of EGFR (Human), P00533 [T790M/L858R] (P00533 whole entry T790M/L858R, looked up): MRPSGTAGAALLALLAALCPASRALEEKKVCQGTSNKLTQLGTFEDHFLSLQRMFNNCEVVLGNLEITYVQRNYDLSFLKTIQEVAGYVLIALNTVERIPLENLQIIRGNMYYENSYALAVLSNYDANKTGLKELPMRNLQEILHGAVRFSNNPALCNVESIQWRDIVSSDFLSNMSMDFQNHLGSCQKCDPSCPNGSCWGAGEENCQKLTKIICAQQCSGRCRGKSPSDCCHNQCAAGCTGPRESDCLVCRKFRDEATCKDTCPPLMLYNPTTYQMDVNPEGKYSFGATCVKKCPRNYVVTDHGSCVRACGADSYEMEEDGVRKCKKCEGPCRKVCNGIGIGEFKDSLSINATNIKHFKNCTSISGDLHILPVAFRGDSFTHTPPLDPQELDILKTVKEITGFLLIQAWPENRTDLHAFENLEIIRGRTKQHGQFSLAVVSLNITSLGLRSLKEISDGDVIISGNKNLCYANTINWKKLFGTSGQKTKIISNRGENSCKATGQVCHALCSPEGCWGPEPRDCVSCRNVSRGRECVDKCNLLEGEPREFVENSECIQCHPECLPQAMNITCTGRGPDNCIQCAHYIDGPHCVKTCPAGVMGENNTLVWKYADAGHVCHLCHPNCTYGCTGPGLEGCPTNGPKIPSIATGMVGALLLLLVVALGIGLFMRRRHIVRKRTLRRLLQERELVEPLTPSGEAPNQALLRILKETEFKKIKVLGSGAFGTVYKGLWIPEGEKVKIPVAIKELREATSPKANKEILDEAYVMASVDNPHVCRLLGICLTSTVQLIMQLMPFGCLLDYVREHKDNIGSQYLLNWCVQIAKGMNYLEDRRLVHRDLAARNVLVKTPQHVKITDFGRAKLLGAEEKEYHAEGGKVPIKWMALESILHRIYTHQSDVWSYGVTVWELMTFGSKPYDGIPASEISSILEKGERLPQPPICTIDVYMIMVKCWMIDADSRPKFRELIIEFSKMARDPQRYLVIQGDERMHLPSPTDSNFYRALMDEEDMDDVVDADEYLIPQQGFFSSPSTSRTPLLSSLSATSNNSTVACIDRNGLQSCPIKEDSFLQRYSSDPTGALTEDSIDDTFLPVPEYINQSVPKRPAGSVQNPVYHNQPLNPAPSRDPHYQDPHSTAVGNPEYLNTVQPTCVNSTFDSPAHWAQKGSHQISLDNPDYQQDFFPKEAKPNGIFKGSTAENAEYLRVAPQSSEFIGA
Sequence of EGFR (human), P00533 [WT] (P00533 whole entry, looked up): as the sequence (P00533 whole entry, looked up, stated change not applied) above
Sequence of EGFR (Human), P00533 [Inhibition of EGFR Dependent Proliferation of HCC827(.Delta.746-750) cells] (P00533 whole entry, looked up, stated change not applied): as above

Row | Structure (SMILES) | pIC50 [1] | pIC50 [2] | pIC50 [3] | pIC50 [4] | pIC50 [5] | pIC50 [6]
1 | C=CC(=O)Nc1cccc(-n2c(=O)cc(C)c3cnc(Nc4ccc(OCCN(C)C)cc4F)nc32)c1 | 5.87 | 7.29 | 7.12 | – | – | –
2 | C=CC(=O)Nc1cccc(-n2c(=O)cc(C)c3cnc(Nc4ccc(N5CCC(C(C)(C)O)CC5)cc4)nc32)c1 | 5.18 | 6.75 | 6.40 | – | – | –
3 | C=CC(=O)Nc1cccc(-n2c(=O)cc(C)c3cnc(Nc4cccc(F)c4)nc32)c1 | – | 6.15 | – | – | – | –
4 | C=CC(=O)Nc1cccc(-n2c(=O)cc(C)c3cnc(Nc4ccc(N(C)CCO)cc4OC)nc32)c1 | 5.77 | 7.46 | 6.32 | – | – | –
5 | C=CC(=O)Nc1cccc(-n2c(=O)cc(C)c3cnc(Nc4cnn(CCN(C)C)c4)nc32)c1 | – | 6.79 | 6.52 | – | – | –
6 | C=CC(=O)Nc1cccc(-n2c(=O)cc(C)c3cnc(Nc4ccc(N(C)CCN(C)C)cc4)nc32)c1 | – | 8.10 | 7.64 | – | – | –
7 | C=CC(=O)Nc1cccc(-n2c(=O)cc(C)c3cnc(Nc4ccc(N(C)CCN5CCCC5=O)cc4OC)nc32)c1 | 5.37 | 6.97 | 6.40 | – | – | –
8 | C=CC(=O)Nc1cccc(-n2c(=O)cc(C)c3cnc(Nc4ccc(N(C)CCN(C)C)cc4Cl)nc32)c1 | 5.51 | 7.89 | 7.68 | – | – | –
9 | C=CC(=O)Nc1cccc(-n2c(=O)cc(C)c3cnc(Nc4ccc(OCCN(C)C)cc4Cl)nc32)c1 | 6.08 | 8.33 | 7.34 | – | – | –
10 | C=CC(=O)Nc1cccc(-n2c(=O)cc(C)c3cnc(Nc4cnn(C(C)C)c4)nc32)c1 | – | 7.00 | – | – | – | –
11 | C=CC(=O)Nc1cccc(-n2c(=O)cc(C)c3cnc(Nc4ccc(N5CCN(C)CC5)c(F)c4)nc32)c1 | 5.90 | 7.55 | 7.07 | – | – | –
12 | C=CC(=O)Nc1cccc(-n2c(=O)cc(C)c3cnc(Nc4ccc(OCCN(C)C)cc4OC)nc32)c1 | 5.62 | 8.40 | 7.55 | 6.29 | 8.40 | 7.77
13 | C=CC(=O)Nc1cccc(-n2c(=O)cc(C)c3cnc(Nc4ccc(N5CCN(C(C)=O)CC5)cc4Cl)nc32)c1 | 5.37 | 8.05 | 6.63 | – | – | –
14 | C=CC(=O)Nc1cccc(-n2c(=O)cc(C)c3cnc(Nc4ccc(C5CCNCC5)cc4)nc32)c1 | – | 6.74 | – | – | – | –
15 | C=CC(=O)Nc1cccc(-n2c(=O)cc(C)c3cnc(Nc4ccc(OCCCN(C)C)cc4)nc32)c1 | 5.81 | 7.57 | 6.80 | – | – | –
16 | C=CC(=O)Nc1cccc(-n2c(=O)c(OC)c(C)c3cnc(Nc4ccc(N5CCN(C)CC5)cc4OC)nc32)c1 | 5.86 | 8.00 | 7.39 | – | – | –
17 | C=CC(=O)Nc1cccc(-n2c(=O)cc(C)c3cnc(Nc4cn([C@H]5CCN(C)C5)nc4C)nc32)c1 | 5.89 | 7.74 | 7.31 | – | – | –
18 | C=CC(=O)Nc1cccc(-n2c(=O)cc(C)c3cnc(Nc4ccc(OCCOC)cc4)nc32)c1 | 5.62 | 7.38 | 6.60 | – | – | –
19 | C=CC(=O)Nc1cccc(-n2c(=O)cc(C)c3cnc(Nc4cn(C)nc4C)nc32)c1 | 5.90 | 7.80 | 7.66 | – | – | –
20 | C=CC(=O)Nc1cccc(-n2c(=O)cc(C)c3cnc(Nc4ccc(N5CCN(C)CC5)cc4OC)nc32)c1 | – | – | – | – | – | 8.10
21 | C=CC(=O)Nc1cccc(-n2c(=O)cc(C)c3cnc(Nc4ccnn4CC)nc32)c1 | – | 6.04 | – | – | – | –

Row | Structure (SMILES) | pIC50 [1] | pIC50 [2] | pIC50 [3] | pIC50 [4] | pIC50 [5] | pIC50 [6]
22 | C=CC(=O)Nc1cccc(-n2c(=O)cc(C)c3cnc(Nc4cn(C)nc4C(F)(F)F)nc32)c1 | – | 7.28 | – | – | – | –
23 | C=CC(=O)N1CC[C@H](Cn2c(=O)cc(C)c3cnc(Nc4ccc(N5CCN(C)CC5)cc4OC)nc32)C1 | – | 6.76 | – | – | – | –
24 | C=CC(=O)Nc1cccc(-n2c(=O)cc(C)c3cnc(Nc4ccc(N5CCN(C)CC5)c(C)c4)nc32)c1 | 6.19 | 8.24 | 7.44 | – | – | –
25 | C/C=C/C(=O)Nc1cccc(-n2c(=O)cc(C)c3cnc(Nc4ccc(N(C)CCN(C)C)cc4OC)nc32)c1 | 4.75 | 6.47 | 5.86 | – | – | –
26 | C=CC(=O)Nc1cccc(-n2c(=O)ccc3cnc(Nc4ccc(N5CCN(C)CC5)cc4OC)nc32)c1 | – | – | – | – | – | 8.47
27 | C=CC(=O)Nc1cccc(-n2c(=O)cc(C)c3cnc(Nc4cn(C)nc4Cl)nc32)c1 | 5.54 | 7.80 | 7.52 | – | – | –
28 | C=CC(=O)Nc1cccc(-n2c(=O)cc(C)c3cnc(Nc4ccc(N(C)CCN(C)C)cc4OC)nc32)c1 | 5.85 | 8.10 | 7.66 | 6.16 | 8.11 | 7.62
29 | C=CC(=O)Nc1cccc(-n2c(=O)c(Cc3ccccc3)cc3cnc(Nc4ccc(N5CCN(C)CC5)cc4OC)nc32)c1 | 6.60 | 8.40 | 7.74 | – | – | –
30 | C=CC(=O)Nc1cccc(-n2c(=O)ccc3cnc(Nc4ccc(NC5CN(CCF)C5)cc4OC)nc32)c1 | – | – | – | – | – | 8.30
31 | C=CC(=O)Nc1cccc(-n2c(=O)cc(C)c3cnc(Nc4ccc(C5CCN(C)CC5)cc4)nc32)c1 | – | 7.96 | 7.57 | – | – | –
32 | C=CC(=O)Nc1cccc(-n2c(=O)cc(C)c3cnc(Nc4ccc(N(C)CCN(C)C)cc4OC(F)F)nc32)c1 | 6.05 | 7.62 | 7.08 | – | – | –
33 | C=CC(=O)Nc1cccc(-n2c(=O)ccc3cnc(Nc4cn(C)nc4C)nc32)c1 | – | 8.15 | 8.70 | – | – | –
34 | C=CC(=O)Nc1cccc(-n2c(=O)cc(C)c3cnc(Nc4cn(C5CCN(C)CC5)nc4C)nc32)c1.C=CC(=O)Nc1cccc(-n2c(=O)cc(C)c3cnc(Nc4cnn(C5CCN(C)CC5)c4C)nc32)c1 | 5.74 | 6.51 | 5.98 | – | – | –
35 | C=CC(=O)Nc1cccc(-n2c(=O)cc(C)c3cnc(Nc4ccc(N(C)CCN(C)C)cc4C)nc32)c1 | 5.94 | 8.05 | 6.91 | – | – | –
36 | C=CC(=O)Nc1cccc(-n2c(=O)cc(C)c3cnc(Nc4ccc(OCCN(C)C)cc4)nc32)c1 | 5.99 | 8.05 | 7.77 and 8.00 | – | – | –
37 | C=CC(=O)Nc1cccc(-n2c(=O)cc(C)c3cnc(Nc4cnn(C)c4)nc32)c1 | 4.78 | 7.21 | 7.11 | – | – | –
38 | C=CC(=O)Nc1cccc(-n2c(=O)cc(C)c3cnc(Nc4cc(C)nn4C)nc32)c1 | – | 6.12 | – | – | – | –
39 | C=CC(=O)Nc1cccc(-n2c(=O)cc(C)c3cnc(Nc4ccc(O[C@H]5CCN(C)C5)cc4OC)nc32)c1 | 5.68 | 7.99 | – | – | – | –
40 | C/C=C/C(=O)Nc1cccc(-n2c(=O)cc(C)c3cnc(Nc4ccc(OCCN(C)C)cc4OC)nc32)c1 | 4.61 | 6.06 | 5.83 | – | – | –
41 | C=CC(=O)Nc1cccc(-n2c(=O)cc(C)c3cnc(Nc4ccc(N(C)CCN5CCCC5)cc4OC)nc32)c1 | 5.85 | 6.89 | 6.57 | – | – | –
42 | C=CC(=O)Nc1cccc(-n2c(=O)c(OC)cc3cnc(Nc4ccc(N5CCN(C)CC5)cc4OC)nc32)c1 | 6.70 | 6.57 | 7.21 | – | – | –
